Test results: patent US11999697B2, “Methods and compositions for inhibition of dihydroorotate dehydrogenase” (OHIO STATE INNOVATION FOUNDATION, priority 2018, dated 2024)
Like-named read-outs stand apart in the source and are kept apart here.

Columns and labels:
OCI-AML3 = test: MTS cell proliferation assay, OCI-AML3; type: cell-based; conditions: Homo sapiens
Experimental: (§1) Triplicate wells were set up for each condition.
(§2) The assays were carried out in a blinded fashion.

[1] = tested on: NK cell function (MV4-11 targets, normal donor NK cells); test: Antibody dependent cellular cytotoxicity (ADCC) assay by 51Cr release; type: cell-based, human; conditions: 1 μM, 4 hours 51Cr release
Experimental: Antibody Dependent Cellular Cytotoxicity (ADCC) Assay by ^51Cr Release: Assessment of NK-cell killing activity was performed using standard 4 hour ^51Cr release (CR) assay. Donor NK cells (effector cells) were isolated from the peripheral blood of normal donors (N=2). MV4-11 cells (target cells) were labeled with radioactive ^51Cr for 1 h at 37° C., washed, and plated in 96 well V-bottom plates at a density of 1×10^4 cells/well. Vehicle or 1 μM Cpd3 was added to either the NKs cells, the MV4-11 cells, or both prior to co-culturing. The ^51Cr labeled MV4-11 cells and NK cells were then co-cultured 25:1 or 12:1 effector to target (E:T) ratio in the presence of antibodies targeting the CD33 surface receptor (B133; B1836858), non-targeting isotype control (B147; B1836847), each at […], or no antibody control. Supernatants were collected after 4 h of co-culture and counted on a Perkin Elmer (Waltham, Mass.) Wizard γ-counter. The percentage of specific cell lysis was determined by: % lysis=100×(ER-SR)/(MR-SR). ER, SR, and MR represent experimental, spontaneous and maximum release. Data were normalized to the untreated control.
Briefly, a chromium (Cr^51) release antibody dependent cellular toxicity assay was carried out with MV4-11 cells (targets) and normal donor NK cells (effectors; N=2). […] Cr^51 release was measured following 4 hours of incubation to determine relative toxicity.

primary human AML cells = test: Flow cytometry staining for differentiation (CD11b/CD14); type: cell-based; conditions: 1 μM, 14 days
Experimental: Flow cytometry staining for differentiation: Primary AML cells were solubilized from the methocult in the CFU assays. 5e5 cells were stained and analyzed by flow cytometry as follows: Gating on CD45 positive hematopoietic cells; B, T and NK-cells were identified using CD19, CD3 and NK1.1 surface markers; differentiation in the myeloid population was assessed by gating on CD34/CD33 positive myeloid cells and staining for CD11 b and CD14.
FIGS. 5A-5E show representative flow cytometry data for induction of CD11b and CD14 positive cells in primary human AML cells following vehicle treatment, treatment with a representative disclosed compound, Cpd3, or treatment with a reference compound, brequinar (indicated as “BQR” in the figures) using methods as described herein below. Briefly, primary AML cells were treated with vehicle (DMSO), Cpd3 (1 μM) or brequinar (BQR, 1 μM) and plated in methylcellulose for 14 days. Cells were recovered from the methylcellulose and characterized by flow cytometry (gating on CD34/CD33 positive myeloid cells and staining for CD11b and CD14). FIGS. 5A-5C show the percentage of CD11b and CD14 positive cells within the live CD33/CD34 positive population for a representative “responder” sample. FIGS. 5D and 5E show collective data for eight primary AML samples. […]

[2] = tested on: kinases (more than 480 kinase assays); test: DiscoverX KINOMEscan panel; type: binding; conditions: 1 μM and 10 μM
Text: A representative disclosed compound, Cpd3, was screened for potential noncovalent binding interaction with kinases by screening a comprehensive panel in the DiscoverX KINOMEscan® platform (Eurofins DiscoverX Corporation, Fremont, Calif. 94538; e.g., see also Herman, S. E. M., et al., Clin Cancer Res; 23(11) Jun. 1, 2017). Panel allows for screening against more than 480 kinase assays including clinically relevant mutants, lipid, atypical, and pathogen kinases. The screening system provides for thermodynamic affinity data (as opposed to IC50s), and allows for detection of multiple inhibitor types, including type I, type II, and allosteric. […] It is notable that the upper limit tested in this screen is at least 10-fold greater than the observed in vitro IC50 for activity in the assays discussed above.

DHODH = target: T1, DHODH (Homo sapiens, UniProt Q02127); test: DHODH enzymatic assay (DCIP reduction); type: biochemical
T1 construct: made in house
T1 sequence (Q02127 whole entry): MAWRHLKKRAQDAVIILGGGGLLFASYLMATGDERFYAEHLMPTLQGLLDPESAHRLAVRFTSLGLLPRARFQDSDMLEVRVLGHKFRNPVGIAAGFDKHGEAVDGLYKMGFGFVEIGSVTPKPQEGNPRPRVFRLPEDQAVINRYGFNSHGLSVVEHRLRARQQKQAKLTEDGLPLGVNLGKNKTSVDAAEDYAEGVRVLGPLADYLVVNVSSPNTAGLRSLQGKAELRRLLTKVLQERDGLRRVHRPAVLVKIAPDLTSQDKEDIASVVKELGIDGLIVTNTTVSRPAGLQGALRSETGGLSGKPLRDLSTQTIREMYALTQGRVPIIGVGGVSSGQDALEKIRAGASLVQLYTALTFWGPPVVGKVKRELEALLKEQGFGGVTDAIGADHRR
Experimental: DHODH Enzymatic Assay: DHODH activity was determined at 25° C. following the reduction of 2,6-dichloroindophenol sodium salt (DCIP) at 600 nm (ε=18 800 M^−1 cm^−1) on a spectrophotometer. The reaction medium used contained 50 mM Tris-HCl, pH 8.0, 0.1% Triton X-100, 0.1 mM LDHO, 0.025 mM CoQ1, and 0.06 mM DCIP. The reaction was started by addition of the enzyme. The inhibitory potency of the compounds was evaluated by measuring the initial velocity of the reaction either in the absence or in the presence of the compounds at the indicated concentrations. The DHODH enzyme used was the recombinant human enzyme prepared as previously described (Helene Munier-Lehmann, et al., J. Med. Chem. 2015, 58:860-877).

[3] = tested on: luciferase-expressing MOLM-13 cells; test: MOLM13 xenograft study, 10 mg/kg; type: in vivo, NCG mice; conditions: 10 mg/kg oral gavage, three or five days per week, Days 7 and 14
Experimental: The effect of a representative disclosed compound, Cpd3, on in vivo tumor growth was assessed in a MOLM13 xenograft study. Briefly, male NCG (NOD-Prkdc^em26Cd52//2rg^em26Cd22/NjuCrl) mice (N=12 per group) were given an intravenous injection of 1×10^4 luciferase-expressing MOLM-13 cells. […] Therefore at 3 days post-engraftment (day 0 treatment), mice were injected with luciferin, imaged for leukemia burden, and began dosing with Cpd3 (10 mg/kg daily by oral gavage) or vehicle control (15% ethanol, 30% PEG-400 in PBS). Mice were treated on two different dosing schedules: Cpd3 three days per week (Mon, Wed and Fri) or five days per week (Mon through Fri). Mice on the Mon, Wed, Fri schedule received a vehicle on Tues and Thurs, so that all mice were consistently gavaged five days per week. In addition to day 0, mice were monitored once weekly (days 7 and 14 post-treatment) by IVIS imaging. In order to assess tumor burden, mice were injected with luciferin and imaged on an IVIS imager Days 0, 7, and 14. […] The data for tumor burden at Day 7 (FIG. 11B) and Day 14 (FIG. 11C) is summarized in bar graph format.

HL-60 = test: MTS cell proliferation assay, HL-60; type: cell-based; conditions: Homo sapiens, 96 hours
Experimental: as §1, §2

MOLM-13 = test: MTS cell proliferation assay, MOLM-13; type: cell-based; conditions: Homo sapiens, 96 hours
Experimental: as §1, §2

## CCOc1ccc(-c2ccc(-c3cc(C(=O)O)c4cc(F)ccc4n3)cc2)cc1 [Cpd3, 2-(4′-ethoxy-[1,1′-biphenyl]-4-yl)-6-fluoroquinoline-4-carboxylic acid]
OCI-AML3; OCI-AML-3, 96 hour, Table 6, read-out: 96 hour IC50 (nM) in OCI-AML-3 cell line
  IC50: 321 nM
OCI-AML3; OCI-AML-3, 96 hours, read-out: IC50 (μM) at 96 hours, OCI-AML3
  IC50: 610 nM
[1]
  NK cell function: does not impact NK cell function
Primary human AML cells
  induction of CD11b and CD14 positive cells: induces CD11 b and CD14 in primary human AML cells
[2]
  noncovalent binding interaction with kinases: no apparent interactions with the screen targets
DHODH; compound concentration not given
  DHODH inhibition, % inhibition: 97%
DHODH; range in parentheses, read-out: DHODH inhibition, IC50
  IC50: 43 nM
[3]
  tumor burden (luciferase expression by IVIS imaging): able to reduce the tumor burden in the mice
HL-60
  IC50: 0.28 µM
MOLM-13
  IC50: 0.4 µM
